The target of assay [1] is T1, full-length beta-Catenin (Uniprot ID P35222) (Homo sapiens, UniProt P35222).
T1 construct: 10 nM full-length beta-Catenin (Uniprot ID P35222)
T1 sequence (P35222 1-781): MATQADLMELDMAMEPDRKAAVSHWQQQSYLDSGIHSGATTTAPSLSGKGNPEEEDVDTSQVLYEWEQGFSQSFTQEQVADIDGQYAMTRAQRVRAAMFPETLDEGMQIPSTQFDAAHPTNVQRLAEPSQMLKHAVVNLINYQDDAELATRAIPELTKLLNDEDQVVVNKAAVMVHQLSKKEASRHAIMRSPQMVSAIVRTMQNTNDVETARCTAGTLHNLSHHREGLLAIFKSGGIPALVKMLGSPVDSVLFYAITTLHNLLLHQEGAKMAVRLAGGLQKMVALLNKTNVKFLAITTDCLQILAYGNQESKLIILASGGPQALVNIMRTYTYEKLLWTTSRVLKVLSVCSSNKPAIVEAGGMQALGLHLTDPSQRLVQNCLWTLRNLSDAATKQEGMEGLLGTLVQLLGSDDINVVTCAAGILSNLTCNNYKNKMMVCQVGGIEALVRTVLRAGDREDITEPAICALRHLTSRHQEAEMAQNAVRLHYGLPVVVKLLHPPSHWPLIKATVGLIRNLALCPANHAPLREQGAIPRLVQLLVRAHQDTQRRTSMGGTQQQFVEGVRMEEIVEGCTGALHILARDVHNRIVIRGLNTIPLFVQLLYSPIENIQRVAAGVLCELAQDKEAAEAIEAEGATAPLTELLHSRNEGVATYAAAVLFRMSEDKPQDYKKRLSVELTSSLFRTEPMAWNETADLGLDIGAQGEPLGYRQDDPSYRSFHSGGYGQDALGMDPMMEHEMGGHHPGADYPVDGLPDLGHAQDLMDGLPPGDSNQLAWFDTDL
Kind of assay: Fluorescence polarization IC50 (beta-catenin / 5FAM-TCF4 10-53 competition). It counts as binding. The note with it: fluorescence polarization; read-out: beta-Catenin FP IC50. Background: In fluorescence polarisation assays a small probe gives low polarisation when free and higher when bound to something large.

Assay [2] relates to TCF/LEF luciferase Reporter in DLD1 cells. Kind of assay: TCF reporter assay (DLD1 TCF/LEF luciferase reporter, Bright-Glo). It counts as cell-based. Particulars: read-out: DLD1 4% Abs IC50; DLD1 reporter, 4%, absolute IC50. The essentials:
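DLD1 cells stably carrying a TCF/LEF luciferase reporter were plated at 5000 cells/well in RPMI + 4% FBS and treated overnight with a 1:2 compound dilution series. Bright-Glo luminescence read on day 3; viability by CellTiter-Glo. Absolute IC50 determined.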
For orientation: A reporter such as luciferase makes a cellular process visible.

In assay [3] the target is T2, beta-catenin/TCF4 engagement (Homo sapiens, UniProt P35222).
T2 construct: expressed in transfected cells; host or cells: HEK293
T2 sequence (P35222 1-781): T1 sequence (P35222 1-781)
Kind of assay: Nano-BRET target engagement assay (B-cat-Halo & TCF4-Luc in HEK293 cells). In kind it is cell-based. The note with it: absolute IC50; read-out: NanoBRET Abs IC50. For orientation: BRET reads energy transfer from a luciferase to a nearby fluorophore.

Molecules are shown by their SMILES. pIC50: −log10 of the molar value.

In the case of `CC(=O)N1CCC[C@]12CC=CCCCC1(CCCC=CCCCOC(=O)N3CC[C@@](C(=O)N[C@@H](Cc4ccccc4C(F)(F)F)C(=O)N[C@@H](Cc4csc5ccccc45)C(=O)N[C@@H](CCC(N)=O)C(=O)N[C@@H](CC(C)C)C(=O)N[C@@H](C)C(N)=O)(C3)NC(=O)[C@H](CC(C)C)NC(=O)[C@H](Cc3ccccc3)NC(=O)[C@H](C)NC(=O)[C@H](C)NC(=O)[C@H](Cc3cccc(C(=O)O)c3)NC(=O)[C@H](CC(=O)O)NC1=O)NC(=O)[C@H](CC(C)(C)C)NC(=O)[C@H](CC(=O)O)NC2=O` (stereo partly drawn) [I-2378, Ac-PL3-Asp-Npg-B5-Asp-3COOHF-Ala-Ala-Phe-Leu-PyrS2-2F3MeF-BztA-Gln-Leu-Ala-NH2], the pIC50 in assay [1] was 7.51; in assay [2], 6.00; in assay [3], 5.32.
Take `CC(=O)N1CCC[C@]12CC=CCCCC1(CCCC=CCCCOC(=O)N3CC[C@@](C(=O)N[C@@H](Cc4ccccc4C(F)(F)F)C(=O)N[C@@H](Cc4csc5ccccc45)C(=O)N[C@@H](CCC(N)=O)C(=O)N[C@@H](CC(C)C)C(=O)N[C@@H](CCC(N)=O)C(N)=O)(C3)NC(=O)[C@H](CC(C)C)NC(=O)[C@H](Cc3ccccc3)NC(=O)[C@H](C)NC(=O)[C@H](C)NC(=O)[C@H](Cc3cccc(C(=O)O)c3)NC(=O)[C@H](CC(=O)O)NC1=O)NC(=O)[C@H](CC(C)(C)C)NC(=O)[C@H](CC(=O)O)NC2=O` (stereo partly drawn) [I-2382, Ac-PL3-Asp-Npg-B5-Asp-3COOHF-Ala-Ala-Phe-Leu-PyrS2-2F3MeF-BztA-Gln-Leu-Gln-NH2]: the negative logarithm of the IC50 (pIC50) was 7.43 in assay [1], 5.12 in assay [2] and 5.40 in assay [3].
Regarding `CC(=O)N1CCC[C@]12CC=CCCCC1(CCCC=CCCCOC(=O)N3CC[C@@](C(=O)N[C@@H](Cc4ccccc4C(F)(F)F)C(=O)N[C@@H](Cc4csc5ccccc45)C(=O)N[C@@H](CCC(N)=O)C(=O)N[C@@H](CC(C)C)C(=O)N[C@H](C(N)=O)[C@@H](C)O)(C3)NC(=O)[C@H](CC(C)C)NC(=O)[C@H](Cc3ccccc3)NC(=O)[C@H](C)NC(=O)[C@H](C)NC(=O)[C@H](Cc3cccc(C(=O)O)c3)NC(=O)[C@H](CC(=O)O)NC1=O)NC(=O)[C@H](CC(C)(C)C)NC(=O)[C@H](CC(=O)O)NC2=O` (stereo partly drawn) [I-2383, Ac-PL3-Asp-Npg-B5-Asp-3COOHF-Ala-Ala-Phe-Leu-PyrS2-2F3MeF-BztA-Gln-Leu-Thr-NH2], the pIC50 in assay [1] is 7.11; in assay [2], 6.10; in assay [3], 5.38.
For `CC(=O)N1CCC[C@]12CC=CCCCC1(CCCC=CCCCOC(=O)N3CC[C@@](C(=O)N[C@@H](Cc4ccccc4C(F)(F)F)C(=O)N[C@@H](Cc4csc5ccccc45)C(=O)N[C@@H](CCC(N)=O)C(=O)N[C@@H](CC(C)C)C(=O)N[C@@H](CO)C(N)=O)(C3)NC(=O)[C@H](CC(C)C)NC(=O)[C@H](Cc3ccccc3)NC(=O)[C@H](C)NC(=O)[C@H](C)NC(=O)[C@H](Cc3cccc(C(=O)O)c3)NC(=O)[C@H](CC(=O)O)NC1=O)NC(=O)[C@H](CC(C)(C)C)NC(=O)[C@H](CC(=O)O)NC2=O` (stereo partly drawn) [I-2384, Ac-PL3-Asp-Npg-B5-Asp-3COOHF-Ala-Ala-Phe-Leu-PyrS2-2F3MeF-BztA-Gln-Leu-Ser-NH2], in that order: 8.30, 5.96 and 5.34.
With `CC[C@H](C)[C@H](NC(=O)[C@H](CC(C)C)NC(=O)[C@H](CCC(N)=O)NC(=O)[C@H](Cc1csc2ccccc12)NC(=O)[C@H](Cc1ccccc1C(F)(F)F)NC(=O)[C@]12CCN(C1)C(=O)OCCCC=CCCCC1(CCCC=CC[C@]3(CCCN3C(C)=O)C(=O)N[C@@H](CC(=O)O)C(=O)N[C@@H](CC(C)(C)C)C(=O)N1)C(=O)N[C@@H](CC(=O)O)C(=O)N[C@@H](Cc1cccc(C(=O)O)c1)C(=O)N[C@@H](C)C(=O)N[C@@H](C)C(=O)N[C@@H](Cc1ccccc1)C(=O)N[C@@H](CC(C)C)C(=O)N2)C(N)=O` (stereo partly drawn) [I-2385, Ac-PL3-Asp-Npg-B5-Asp-3COOHF-Ala-Ala-Phe-Leu-PyrS2-2F3MeF-BztA-Gln-Leu-Ile-NH2], the pIC50 is 6.25 in assay [1], 5.74 in assay [2] and 5.40 in assay [3].
Regarding `CC(=O)N1CCC[C@]12CC=CCCCC1(CCCC=CCCCOC(=O)N3CC[C@@](C(=O)N[C@@H](Cc4ccccc4C(F)(F)F)C(=O)N[C@@H](Cc4csc5ccccc45)C(=O)N[C@@H](CCC(N)=O)C(=O)N[C@@H](CC(C)C)C(=O)NC(C)(C)C(N)=O)(C3)NC(=O)[C@H](CC(C)C)NC(=O)[C@H](Cc3ccccc3)NC(=O)[C@H](C)NC(=O)[C@H](C)NC(=O)[C@H](Cc3cccc(C(=O)O)c3)NC(=O)[C@H](CC(=O)O)NC1=O)NC(=O)[C@H](CC(C)(C)C)NC(=O)[C@H](CC(=O)O)NC2=O` (stereo partly drawn) [I-2386, Ac-PL3-Asp-Npg-B5-Asp-3COOHF-Ala-Ala-Phe-Leu-PyrS2-2F3MeF-BztA-Gln-Leu-Aib-NH2], the pIC50 in assay [1] was 7.12; in assay [2] it was 6.15; in assay [3], 5.55.
Take `CC(=O)N1CCC[C@]12CC=CCCCC1(CCCC=CCCCOC(=O)N3CC[C@@](C(=O)N[C@@H](Cc4ccccc4C(F)(F)F)C(=O)N[C@@H](Cc4csc5ccccc45)C(=O)N[C@@H](CCC(N)=O)C(=O)N[C@@H](CC(C)C)C(=O)NC4(C(N)=O)CCC4)(C3)NC(=O)[C@H](CC(C)C)NC(=O)[C@H](Cc3ccccc3)NC(=O)[C@H](C)NC(=O)[C@H](C)NC(=O)[C@H](Cc3cccc(C(=O)O)c3)NC(=O)[C@H](CC(=O)O)NC1=O)NC(=O)[C@H](CC(C)(C)C)NC(=O)[C@H](CC(=O)O)NC2=O` (stereo partly drawn) [I-2388, Ac-PL3-Asp-Npg-B5-Asp-3COOHF-Ala-Ala-Phe-Leu-PyrS2-2F3MeF-BztA-Gln-Leu-Cbg-NH2]: the values for the pIC50 in assay [1], in assay [2] and in assay [3] were 6.88, 5.92 and 5.24, respectively.
For `CC(=O)N1CCC[C@]12CC=CCCCC1(CCCC=CCCCOC(=O)N3CC[C@@](C(=O)N[C@@H](Cc4ccccc4C(F)(F)F)C(=O)N[C@@H](Cc4csc5ccccc45)C(=O)N[C@@H](CCC(N)=O)C(=O)N[C@@H](CC(C)C)C(=O)N[C@@H](CC(N)=O)C(N)=O)(C3)NC(=O)[C@H](CC(C)C)NC(=O)[C@H](Cc3ccccc3)NC(=O)[C@H](C)NC(=O)[C@H](C)NC(=O)[C@H](Cc3cccc(C(=O)O)c3)NC(=O)[C@H](CC(=O)O)NC1=O)NC(=O)[C@H](CC(C)(C)C)NC(=O)[C@H](CC(=O)O)NC2=O` (stereo partly drawn) [I-2390, Ac-PL3-Asp-Npg-B5-Asp-3COOHF-Ala-Ala-Phe-Leu-PyrS2-2F3MeF-BztA-Gln-Leu-Asn-NH2], the figures for the pIC50 in assay [1], in assay [2] and in assay [3] were 7.66, 5.85 and 5.04, respectively.
For `CCCC[C@H](NC(=O)[C@H](CC(C)C)NC(=O)[C@H](CCC(N)=O)NC(=O)[C@H](Cc1csc2ccccc12)NC(=O)[C@H](Cc1ccccc1C(F)(F)F)NC(=O)[C@]12CCN(C1)C(=O)OCCCC=CCCCC1(CCCC=CC[C@]3(CCCN3C(C)=O)C(=O)N[C@@H](CC(=O)O)C(=O)N[C@@H](CC(C)(C)C)C(=O)N1)C(=O)N[C@@H](CC(=O)O)C(=O)N[C@@H](Cc1cccc(C(=O)O)c1)C(=O)N[C@@H](C)C(=O)N[C@@H](C)C(=O)N[C@@H](Cc1ccccc1)C(=O)N[C@@H](CC(C)C)C(=O)N2)C(N)=O` (stereo partly drawn) [I-2391, Ac-PL3-Asp-Npg-B5-Asp-3COOHF-Ala-Ala-Phe-Leu-PyrS2-2F3MeF-BztA-Gln-Leu-nLeu-NH2], in that order: 6.96, 6.15 and 5.09.
For `CC(=O)N1CCC[C@]12CC=CCCCC1(CCCC=CCCCOC(=O)N3CC[C@@](C(=O)N[C@@H](Cc4ccccc4C(F)(F)F)C(=O)N[C@@H](Cc4csc5ccccc45)C(=O)N[C@@H](CCC(N)=O)C(=O)N[C@@H](CC(C)C)C(=O)N[C@@H](CCCNC(=N)N)C(N)=O)(C3)NC(=O)[C@H](CC(C)C)NC(=O)[C@H](Cc3ccccc3)NC(=O)[C@H](C)NC(=O)[C@H](C)NC(=O)[C@H](Cc3cccc(C(=O)O)c3)NC(=O)[C@H](CC(=O)O)NC1=O)NC(=O)[C@H](CC(C)(C)C)NC(=O)[C@H](CC(=O)O)NC2=O` (stereo partly drawn) [I-2393, Ac-PL3-Asp-Npg-B5-Asp-3COOHF-Ala-Ala-Phe-Leu-PyrS2-2F3MeF-BztA-Gln-Leu-Arg-NH2], in that order: 7.21, 5.25 and below 4.70.

Usually pIC50 stands for −log10 of the IC50, conventionally taken in molar units.

For the origin of these results see patent publication US20240116985A1, “STAPLED PEPTIDES AND METHODS THEREOF” (priority 2020, published 2024).
